Tested on: ovoalbumin-sensitized guinea-pig isolated tracheal rings
Experiment: Inhibition of antigen (ovoalbumin)-induced contraction in ovoalbumin-sensitized guinea-pig isolated tracheal rings (organ bath)
Experimental: Male Dunkin-Hartley guinea-pigs (weighing 380-420 g) from Harlan Ibérica (St. Feliu de Codines, Spain) are used. They are housed, with free access to food and water, in rooms kept at 22±2° C. under a 12 hours light-dark cycle until the start of the experiment.
The animals are sensitised by means of two sessions of aerosolization with a solution of 5 mg/ml of ovoalbumin on days zero and 7 of the study. The aerosolization procedure consists of two 30-s nebulisations (Efbe air brush apparatus) with an interval of 5 minutes with animals maintained in a plexiglass box for 10 minutes since the beginning of the procedure.
Between days 14 to 20 from the beginning of the experiment the animals are euthanised and the tracheal tissue is removed. A single tracheal ring is excised and suspended in an organ bath containing Krebs solution. Once attached to a force isometric transducer, it is submitted to a basal resting tension of 1 g, equilibrated with a mixture a 5% CO2 in O2 and maintained at 37° C.
The preparations are allowed to equilibrate for a period of not less than 60 minutes and then the vehicle or the compound(s) to be tested are added to the bath. […] At this moment ovoalbumin is added (at a final concentration in the bath of 10 μg/ml) to elicit the contractile response which is measured immediately.
The contractile responses measured with a force isometric transducer are expressed in mg.

Compound: C[C@H]1C[C@H]2[C@@H]3CCC4=CC(=O)C=C[C@]4(C)[C@@]3(Cl)[C@@H](O)C[C@]2(C)[C@@]1(O)C(=O)CO [BECLOMETHASONE, beclomethasone]
- % INHIBITION OF THE CONTRACTILE RESPONSE (each compound 10 μM in bath, ovoalbumin 10 μg/ml, relative to vehicle): 12%
- inhibition of the contractile response to antigen, comparison in words (ovoalbumin-sensitized guinea-pig tracheal rings, summary of Table 1 and FIG. 1): smaller effect
